Results published in ChEMBL document CHEMBL1201862, “PubChem BioAssay data set” (2004).
Activity calls are given as the source filed them.

Experiments:
[1] = target: Eukaryotic translation initiation factor 4E (Mus musculus, UniProt P63073); experiment: eIF4E–eIF4G protein interaction inhibitors, dose response, biochemical, TR-FRET (AID 855); type: functional;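 further: potency for disrupting eIF4E binding to eIF4GI seen as loss of FRET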
X-box-binding protein 1 = X-box-binding protein 1 (Homo sapiens, UniProt P17861); type: functional, Cricetulus griseus;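 further: confirmatory dose-response counter-screen serving a CHOP assay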
X-box-binding protein 1, sequence (P17861 whole entry): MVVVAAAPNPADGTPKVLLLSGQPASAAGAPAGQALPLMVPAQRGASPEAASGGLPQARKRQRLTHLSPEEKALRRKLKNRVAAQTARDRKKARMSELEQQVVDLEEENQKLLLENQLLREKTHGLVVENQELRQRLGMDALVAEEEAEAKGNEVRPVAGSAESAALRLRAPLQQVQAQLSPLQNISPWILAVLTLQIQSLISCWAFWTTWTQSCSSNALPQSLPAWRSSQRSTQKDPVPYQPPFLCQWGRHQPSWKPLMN

[2] = target: T1, Replicative DNA helicase DnaB (Mycobacterium tuberculosis, UniProt P9WMR3); experiment: DnaB intein splicing inhibitors, dose response, biochemical, cell-free fluorescence (AID 449749); type: functional
T1 sequence (P9WMR3 whole entry): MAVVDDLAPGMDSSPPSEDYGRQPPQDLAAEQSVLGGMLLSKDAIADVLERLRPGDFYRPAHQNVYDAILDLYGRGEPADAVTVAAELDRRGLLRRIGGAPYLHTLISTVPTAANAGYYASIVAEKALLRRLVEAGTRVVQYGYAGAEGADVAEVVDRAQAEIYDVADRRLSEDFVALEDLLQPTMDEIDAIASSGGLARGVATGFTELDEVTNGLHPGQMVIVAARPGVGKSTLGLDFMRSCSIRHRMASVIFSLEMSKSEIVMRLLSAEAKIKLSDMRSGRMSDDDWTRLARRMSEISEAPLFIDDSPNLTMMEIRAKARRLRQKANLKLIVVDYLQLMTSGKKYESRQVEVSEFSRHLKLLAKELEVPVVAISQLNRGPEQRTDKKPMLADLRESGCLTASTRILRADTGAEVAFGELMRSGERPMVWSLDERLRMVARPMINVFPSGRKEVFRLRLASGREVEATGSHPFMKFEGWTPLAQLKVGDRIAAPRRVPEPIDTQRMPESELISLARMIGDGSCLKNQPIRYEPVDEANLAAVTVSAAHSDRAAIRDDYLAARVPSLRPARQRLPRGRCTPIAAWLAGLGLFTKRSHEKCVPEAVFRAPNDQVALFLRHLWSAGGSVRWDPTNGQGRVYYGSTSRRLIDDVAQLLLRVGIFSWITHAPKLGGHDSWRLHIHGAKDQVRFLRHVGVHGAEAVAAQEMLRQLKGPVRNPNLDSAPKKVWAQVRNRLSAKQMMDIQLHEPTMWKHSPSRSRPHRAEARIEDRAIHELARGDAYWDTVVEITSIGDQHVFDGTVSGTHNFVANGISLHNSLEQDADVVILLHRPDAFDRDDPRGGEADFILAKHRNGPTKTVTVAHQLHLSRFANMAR

Protein RecA = target: T2, Protein RecA (Mycobacterium tuberculosis, UniProt P9WHJ3); experiment: Fluorescence Cell-Free Homogeneous Dose Retest to Identify Inhibitors of RecA-Intein Splicing Activity. [Related pubchem assays (depositor defined):AID2097, AID2223, AID489010, AID492950]; type: functional
T2 sequence (P9WHJ3 whole entry): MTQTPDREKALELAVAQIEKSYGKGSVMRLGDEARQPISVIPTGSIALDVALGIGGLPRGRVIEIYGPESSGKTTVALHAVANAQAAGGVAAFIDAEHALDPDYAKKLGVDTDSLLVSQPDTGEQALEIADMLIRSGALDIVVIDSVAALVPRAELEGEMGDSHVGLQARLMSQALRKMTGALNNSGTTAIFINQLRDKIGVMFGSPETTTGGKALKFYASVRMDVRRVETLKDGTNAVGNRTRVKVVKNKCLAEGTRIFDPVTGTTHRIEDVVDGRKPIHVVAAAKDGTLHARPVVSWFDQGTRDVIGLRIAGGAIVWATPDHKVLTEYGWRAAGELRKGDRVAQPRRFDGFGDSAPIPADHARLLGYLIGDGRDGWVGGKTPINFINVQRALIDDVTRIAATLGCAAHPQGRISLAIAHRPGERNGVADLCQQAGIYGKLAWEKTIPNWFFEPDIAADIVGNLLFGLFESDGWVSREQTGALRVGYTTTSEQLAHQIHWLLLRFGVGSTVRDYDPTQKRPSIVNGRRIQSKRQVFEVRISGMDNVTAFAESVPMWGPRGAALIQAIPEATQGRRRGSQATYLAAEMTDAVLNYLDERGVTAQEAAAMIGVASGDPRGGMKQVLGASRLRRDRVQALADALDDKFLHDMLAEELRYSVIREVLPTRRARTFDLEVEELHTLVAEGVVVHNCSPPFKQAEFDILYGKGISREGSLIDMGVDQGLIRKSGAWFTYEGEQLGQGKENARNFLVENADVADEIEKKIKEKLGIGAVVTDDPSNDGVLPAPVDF

CAAX prenyl protease 2 = target: T3, CAAX prenyl protease 2 (Saccharomyces cerevisiae S288c, UniProt Q03530); type: biochemical
T3 sequence (Q03530 whole entry): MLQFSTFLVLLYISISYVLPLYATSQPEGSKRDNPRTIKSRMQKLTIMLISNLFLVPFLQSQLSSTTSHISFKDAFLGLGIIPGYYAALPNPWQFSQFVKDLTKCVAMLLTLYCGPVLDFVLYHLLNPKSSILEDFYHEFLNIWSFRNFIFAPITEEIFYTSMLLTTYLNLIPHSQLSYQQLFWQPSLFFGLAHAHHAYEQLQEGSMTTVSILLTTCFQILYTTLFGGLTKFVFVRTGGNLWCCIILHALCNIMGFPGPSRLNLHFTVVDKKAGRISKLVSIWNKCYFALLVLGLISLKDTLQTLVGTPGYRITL

Eukaryotic translation initiation factor 4E, sequence (P63073 whole entry): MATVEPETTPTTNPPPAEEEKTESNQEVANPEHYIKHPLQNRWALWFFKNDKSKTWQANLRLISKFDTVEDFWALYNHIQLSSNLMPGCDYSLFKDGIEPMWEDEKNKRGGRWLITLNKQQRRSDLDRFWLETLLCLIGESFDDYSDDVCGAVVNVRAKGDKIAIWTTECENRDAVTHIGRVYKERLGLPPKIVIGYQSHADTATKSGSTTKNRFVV

Compound: CCn1nnnc1SCC(=O)Nc1cccc(NC(C)=O)c1
- IC50 [1]: > 64 µM (inactive)

Compound: Cc1cc(-c2[nH]nc3c2C(c2ccc(Cl)cc2)C(C#N)=C(N)O3)c(C)s1 (stereo not given)
- Absolute IC50 (XBP1) (X-box-binding protein 1): 10 µM
- AC50 [2]: 3.07 µM (active)
- EC50 (Protein RecA): 3.42 µM (active)

Compound: CC1(C)CC2CC(C)(CN2S(=O)(=O)c2ccc(N)cc2)C1 (stereo not given)
- AC50 (CAAX prenyl protease 2): 93.4 µM (active)
